How the values were obtained:
Details in all cases: treatment: drug + dasatinib (fixed dose, not stated); 5 days
786-O [1] = assay: minimum viability across doses, drug + dasatinib, relative to DMSO (fraction); higher = less growth inhibition
Procedure: (§1)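 Primary HTS combination arm: 8 RCC cell lines treated with 8 doses (up to 10 uM) of each library drug plus a fixed dose of dasatinib (dose not stated) for 5 days; viability read by CellTiter-Glo and normalised to DMSO. GI50 was fitted with XLfit, AUC is the area under the dose-response curve, and minimum viability is the lowest fraction of DMSO viability across doses.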

A498 [2] = assay: as above
Procedure: as §1

UO-31 [3] = assay: as above
Procedure: as §1

769-P [4] = assay: as above
Procedure: as §1

TK-10 [5] = assay: as above
Procedure: as §1

ACHN [6] = assay: as above
Procedure: as §1

CAKI-1 [7] = assay: as above
Procedure: as §1

SN12C [8] = assay: as above
Procedure: as §1

786-O [9] = assay: AUC of dose-response viability curve, drug + dasatinib, normalised to DMSO (arbitrary (AUC of normalised viability)); higher = less growth inhibition
Procedure: as §1

A498 [10] = assay: as above
Procedure: as §1

UO-31 [11] = assay: as above
Procedure: as §1

769-P [12] = assay: as above
Procedure: as §1

TK-10 [13] = assay: as above
Procedure: as §1

ACHN [14] = assay: as above
Procedure: as §1

CAKI-1 [15] = assay: as above
Procedure: as §1

SN12C [16] = assay: as above
Procedure: as §1

786-O [17] = assay: GI50 of drug in presence of dasatinib; higher = less potent
Procedure: as §1

A498 [18] = assay: as above
Procedure: as §1

UO-31 [19] = assay: as above
Procedure: as §1

769-P [20] = assay: as above
Procedure: as §1

TK-10 [21] = assay: as above
Procedure: as §1

ACHN [22] = assay: as above
Procedure: as §1

CAKI-1 [23] = assay: as above
Procedure: as §1

SN12C [24] = assay: as above
Procedure: as §1

| SMILES | minimum viability across doses (786-O [1]) | minimum viability across doses (A498 [2]) | minimum viability across doses (UO-31 [3]) | minimum viability across doses (769-P [4]) | minimum viability across doses (TK-10 [5]) | minimum viability across doses (ACHN [6]) | minimum viability across doses (CAKI-1 [7]) | minimum viability across doses (SN12C [8]) | AUC of dose-response viability curve (786-O [9]) | AUC of dose-response viability curve (A498 [10]) | AUC of dose-response viability curve (UO-31 [11]) | AUC of dose-response viability curve (769-P [12]) | AUC of dose-response viability curve (TK-10 [13]) | AUC of dose-response viability curve (ACHN [14]) | AUC of dose-response viability curve (CAKI-1 [15]) | AUC of dose-response viability curve (SN12C [16]) | GI50 of drug (786-O [17]) | GI50 of drug (A498 [18]) | GI50 of drug (UO-31 [19]) | GI50 of drug (769-P [20]) | GI50 of drug (TK-10 [21]) | GI50 of drug (ACHN [22]) | GI50 of drug (CAKI-1 [23]) | GI50 of drug (SN12C [24]) |
| --- | --- | --- | --- | --- | --- | --- | --- | --- | --- | --- | --- | --- | --- | --- | --- | --- | --- | --- | --- | --- | --- | --- | --- | --- |
| Cn1cnc(-c2cc3nccc(Oc4ccc(NC(=S)NC(=O)Cc5ccccc5)cc4F)c3s2)c1 [MGCD-265] + Cc1nc(Nc2ncc(C(=O)Nc3c(C)cccc3Cl)s2)cc(N2CCN(CCO)CC2)n1 [dasatinib] | 0.646 | 0.676 | 0.107 | 0.557 | 0.727 | 0.44 | 0.256 | 0.515 | 2.64 | 3.49 | 3.44 | 2.39 | 2.82 | 2.13 | 2.21 | 2.38 | > 10 µM | > 10 µM | 5.72 µM | > 10 µM | > 10 µM | 2.83 µM | 3.63 µM | > 10 µM |
| CN(C[C@@H]1COCCO1)S(=O)(=O)Nc1ccc2ccc3ncc(-c4cnn(C)c4)cc3c(=O)c2c1 [MK-2461] + Cc1nc(Nc2ncc(C(=O)Nc3c(C)cccc3Cl)s2)cc(N2CCN(CCO)CC2)n1 [dasatinib] | 0.638 | 0.919 | 0.227 | 0.362 | 0.287 | 0.121 | 0.0412 | 0.179 | 4.08 | 4.48 | 5.47 | 2.49 | 2.19 | 1.23 | 1.71 | 2.14 | > 10 µM | > 10 µM | 5.33 µM | 6.28 µM | 2.91 µM | 0.0109 µM | 0.45 µM | > 10 µM |
| O=C(O)[C@]1(Cc2cccc(Nc3nccs3)n2)CC[C@@H](Oc2cccc(Cl)c2F)CC1 [MK-5108 (VX-689)] + Cc1nc(Nc2ncc(C(=O)Nc3c(C)cccc3Cl)s2)cc(N2CCN(CCO)CC2)n1 [dasatinib] | 0.00534 | 0.339 | 0.37 | 0.202 | 0.372 | 0.227 | 0.216 | 0.174 | 1.07 | 2.89 | 3.91 | 2.18 | 2.14 | 1.51 | 1.86 | 1.96 | 0.105 µM | 1.99 µM | 4.08 µM | 1.36 µM | 1.48 µM | 0.0401 µM | 0.355 µM | 0.944 µM |
| O=C(O)c1ccc(Nc2ncc3c(n2)-c2ccc(Cl)cc2C(c2c(F)cccc2F)=NC3)cc1 [MLN8054] + Cc1nc(Nc2ncc(C(=O)Nc3c(C)cccc3Cl)s2)cc(N2CCN(CCO)CC2)n1 [dasatinib] | 0.157 | 0.354 | 0.645 | 0.306 | 0.585 | 0.219 | 0.277 | 0.425 | 2.01 | 2.68 | 2.92 | 2.14 | 2.58 | 1.77 | 1.93 | 2.22 | 0.641 µM | 4.23 µM | > 10 µM | 1.19 µM | > 10 µM | 0.398 µM | 0.641 µM | 3.92 µM |
| Cc1ccc(NC(=O)c2ccc(CN3CCN(C)CC3)cc2)cc1Nc1nc(-c2cccnc2)cs1 [Masitinib (AB1010)] + Cc1nc(Nc2ncc(C(=O)Nc3c(C)cccc3Cl)s2)cc(N2CCN(CCO)CC2)n1 [dasatinib] | 0.204 | 0.622 | 0.271 | 0.377 | 0.57 | 0.263 | 0.438 | 0.484 | 2.55 | 3.05 | 3.05 | 2.3 | 2.71 | 1.96 | 2.28 | 2.51 | 4.05 µM | > 10 µM | 6.09 µM | 4.7 µM | > 10 µM | 0.46 µM | 6.75 µM | > 10 µM |
| CC1(C)CNc2cc(NC(=O)c3cccnc3NCc3ccncc3)ccc21.O=P(O)(O)O.O=P(O)(O)O [Motesanib Diphosphate] + Cc1nc(Nc2ncc(C(=O)Nc3c(C)cccc3Cl)s2)cc(N2CCN(CCO)CC2)n1 [dasatinib] | 0.714 | 0.877 | 0.944 | 0.599 | 0.724 | 0.512 | 0.542 | 0.711 | 2.74 | 3.26 | 3.93 | 2.34 | 2.87 | 2.3 | 2.39 | 2.56 | > 10 µM | > 10 µM | > 10 µM | > 10 µM | > 10 µM | > 10 µM | > 10 µM | > 10 µM |
| FC(F)(F)c1ccc(/C=C/c2nc(COc3ccc(CCCCn4ccnn4)cc3)co2)cc1 [Mubritinib (TAK 165)] + Cc1nc(Nc2ncc(C(=O)Nc3c(C)cccc3Cl)s2)cc(N2CCN(CCO)CC2)n1 [dasatinib] | 0.0257 | 0.231 | 0.124 | 0.539 | 0.168 | 0.183 | 0.543 | 0.0505 | 0.96 | 1.99 | 1.66 | 2.32 | 1.56 | 1.26 | 2.17 | 1.09 | 0.0238 µM | 0.243 µM | 0.0747 µM | > 10 µM | 0.146 µM | 0.0314 µM | > 10 µM | 0.0416 µM |
